Test results as given in publication PMC3969223, “Characterization of WZ4003 and HTH-01-015 as selective inhibitors of the LKB1-tumour-suppressor-activated NUAK kinases” (Biochemical Journal, 2013).

Key:
[1] = tested on: panel of 140 protein kinases; experiment: Protein kinase profiling, whole panel; assay type: biochemical; settings: 1 μM, panel of 140 kinases
Method: (§1) Kinase inhibitor specificity profiling assays were carried out at The International Centre for Protein Kinase Profiling (http://www.kinase-screen.mrc.ac.uk/) against a panel of 140 protein kinases as described previously. Results are presented as a percentage of kinase activity in DMSO control reactions. Protein kinases were assayed in vitro with 0.1 or 1 μM of the inhibitors and the results are presented as an average of triplicate reactions±S.D. or in the form of comparative histograms.

Aurora B = Aurora B (Homo sapiens, UniProt Q96GD4); experiment: Kinase profiling; assay type: biochemical; settings: for Inhibition of Aurora B in profiling (in words; Aurora isoforms): 1 μM; for Aurora B activity, percentage of DMSO control: 0.1 or 1 μM inhibitor, mean of triplicate
Method: as §1

[2] = tested on: MYPT1 Ser445 phosphorylation; experiment: MYPT1 Ser445 phosphorylation, HEK-293 Flp/In T-Rex overexpressing wild-type HA-NUAK1; assay type: cell-based, human; settings: HEK-293 expressing wild-type NUAK1; 3–10 μM
Method: HEK (human embryonic kidney)-293 and U2OS cells were cultured in DMEM (Dulbecco's modified Eagle's medium) supplemented with 10% FBS, 2 mM glutamine and 1×antibacterial/antimycotic solution. NUAK1^+/+ and NUAK1^−/− MEFs were cultured in DMEM supplemented with 10% (v/v) FBS and 2 mM glutamine, 1×antibacterial/antimycotic solution, 1% (v/v) non-essential amino acids and 1% (v/v) sodium pyruvate. HEK-293 Flp/In T-Rex cell lines were cultured in DMEM supplemented with 10% (v/v) FBS and 2 mM glutamine, 1×antibacterial/antimycotic solution, 100 μg/ml hygromycin and 15 μg/ml blasticidin. Supplementing the culture medium with 0.1 μg/ml doxycycline for 16–24 h induced protein expression in the HEK-293 Flp/In T-Rex cells. Cell counting was carried out using Invitrogen Countess following the manufacturer's protocol. A cell-detachment assay was carried out on HEK-293 cells using PBS-EDTA-based cell dissociation buffer as described previously. An inhibitor dose-dependence assay was carried out by treating the cells with various concentrations of the inhibitors as indicated in the Figure legends. The inhibitors were dissolved in DMSO and the total concentration of DMSO in the culture media never exceeded 1%. Transient transfections of HEK-293 cells were carried out using PEI [24]. Stable transfections were carried out in HEK-293 Flp/In T-Rex cells (Invitrogen) following the manufacturer's protocol. […]

U2OS cells = experiment: Cell proliferation assay (CellTiter 96 AQueous); assay type: cell-based; settings: 10 μM, 5 days; same extent as shRNA-mediated NUAK1 knockdown
Method: Cell proliferation assays were carried out colorimetrically in 96-well plates using the CellTiter 96® AQueous Non-Radioactive Cell Proliferation Assay kit (Promega) following the manufacturer's protocol. Initially, 2000 cells per well were seeded for U2OS cells and 3000 cells per well were seeded for MEFs. The proliferation assays were carried out over 5 days in the presence or absence of 10 μM HTH-01-015 or WZ4003.

BRSK1 = target: T1, BRSK1 (Homo sapiens, UniProt Q8TDC3); experiment: Kinase profiling; assay type: biochemical; settings: for BRSK1 activity, percentage of DMSO control: 0.1 or 1 μM inhibitor, mean of triplicate
T1 sequence (Q8TDC3 1-778): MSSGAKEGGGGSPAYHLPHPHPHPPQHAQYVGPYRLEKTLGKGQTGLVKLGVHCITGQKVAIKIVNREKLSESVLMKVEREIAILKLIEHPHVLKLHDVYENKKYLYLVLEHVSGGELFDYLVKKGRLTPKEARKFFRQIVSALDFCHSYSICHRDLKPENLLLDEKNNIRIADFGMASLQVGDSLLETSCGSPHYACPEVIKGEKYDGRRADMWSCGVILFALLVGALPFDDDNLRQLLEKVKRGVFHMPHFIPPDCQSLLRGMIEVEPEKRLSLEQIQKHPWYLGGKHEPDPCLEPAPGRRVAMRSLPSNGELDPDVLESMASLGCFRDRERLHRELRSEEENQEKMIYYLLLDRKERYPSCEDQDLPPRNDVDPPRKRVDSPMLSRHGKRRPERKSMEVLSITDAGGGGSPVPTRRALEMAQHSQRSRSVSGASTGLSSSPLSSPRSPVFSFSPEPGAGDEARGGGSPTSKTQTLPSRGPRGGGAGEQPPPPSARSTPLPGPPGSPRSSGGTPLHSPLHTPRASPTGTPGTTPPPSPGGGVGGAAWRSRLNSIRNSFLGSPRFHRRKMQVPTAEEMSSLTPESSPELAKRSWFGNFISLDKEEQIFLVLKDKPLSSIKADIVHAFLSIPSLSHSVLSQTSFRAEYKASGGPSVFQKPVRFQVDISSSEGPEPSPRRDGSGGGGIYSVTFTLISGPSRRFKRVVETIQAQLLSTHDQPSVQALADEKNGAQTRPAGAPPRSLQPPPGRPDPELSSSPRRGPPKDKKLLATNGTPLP
Method: as §1

Chain of Aurora B (Q96GD4 whole entry, canonical isoform): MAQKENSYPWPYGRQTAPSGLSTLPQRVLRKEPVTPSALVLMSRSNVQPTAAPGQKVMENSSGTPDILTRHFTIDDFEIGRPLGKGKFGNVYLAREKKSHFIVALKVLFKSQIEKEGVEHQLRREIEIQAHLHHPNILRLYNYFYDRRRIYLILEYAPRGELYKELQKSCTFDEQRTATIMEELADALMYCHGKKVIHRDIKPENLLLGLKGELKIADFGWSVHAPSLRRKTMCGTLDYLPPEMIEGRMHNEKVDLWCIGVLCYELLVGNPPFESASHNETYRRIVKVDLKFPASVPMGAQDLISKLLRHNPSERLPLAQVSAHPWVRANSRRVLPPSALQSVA

Row | SMILES | Selectivity over the other kinases of the panel (in words) [1] | Inhibition of Aurora B in profiling (in words; Aurora isoforms) (Aurora B) | Suppression of MYPT1 phosphorylation (in words) [2] | Proliferation of U2OS cells (in words) (U2OS cells) | Aurora B activity, percentage of DMSO control (Aurora B) | BRSK1 activity, percentage of DMSO control (BRSK1) | Inhibition of BRSK1 in profiling (in words) (BRSK1; 1 μM)
1 | CN1C(=O)c2cc3ccccc3cc2N(C)c2nc(Nc3cnn(C4CCNCC4)c3)ncc21 [XMD-18-42] | less selective | inhibited |  |  |  |  | 
2 | CCC(=O)Nc1cccc(Oc2nc(Nc3ccc(N4CCN(C)CC4)cc3OC)ncc2Cl)c1 [WZ4003] | did not significantly inhibit |  | markedly suppressed | suppressed proliferation | 72 percentage | 91 percentage | 
3 | CN1C(=O)c2ccccc2N(C)c2nc(Nc3cnn(C4CCNCC4)c3)ncc21 [XMD-17-51] | less selective | inhibited |  |  |  |  | inhibited
4 | Cc1nc(Nc2cnn(C3CCNCC3)c2)nc2c1N(C)C(=O)c1cc3ccccc3cc1N2C [HTH-01-015] | did not markedly suppress |  | markedly suppressed | suppressed proliferation | 97 percentage | 130 percentage | 
